The results in this text go back to patent publication US20260373101A1, “POLYAMINATED FATTY ACIDS FOR USE AS POTENTIATORS OF ANTIBACTERIAL ACTIVITY” (priority 2023, published 2026).

SMILES strings stand for the structures.

Assay in all cases: Potentiation of known antibiotics (MIC of antibiotic alone or with PAFA)
Common to all, as to format: cell-based

One experiment deals with E. coli AG-100A. Particulars: Escherichia coli, AG100A, 24 h. As to the method:
(§1) 100 μl of a liquid culture medium is deposited in each well of a 96-well microplate, and then inoculated with the bacterial suspension of example 2.1 prepared for the positive control. The volume needed to inoculate is calculated for an OD of 0.01 which corresponds to approximately 5,106 bacteria in each well. In this plate, the first row corresponds to a negative control (200 μl of sterile culture medium in each well), the second row to a positive control (100 μl of sterile culture medium with 100 μl of the bacterial suspension), the third row contains 192 μl of culture medium and 8 μl of an antibiotic solution (10 mg/ml) to be tested in each well. Subsequently, a cascade dilution is performed from this line. Next, 10 μl of a fatty acid solution (10 μM final concentration) is added to each well of the lines. Then, 90 μl of bacterial suspension is added to lines 3 to 8. The MIC of the antibiotic tested is determined after 24 hours of incubation at 37 °C in a humid atmosphere.
(§2) The table 3 below reports the antibacterial activity (MIC in μg/mL) of a combination of some polyaminated fatty acids prepared in example 1 with various antibacterial drugs: doxycycline (DOX), tetracycline (TET), oxytetracycline (OXY) and minocycline (MINO), against various bacterial strains of P. aeruginosa (PA01, PA0509, and PA263), and of E. coli (AG-100 and AG-100A).

The test system of the next experiment is E. coli AG-100. The note with it: Escherichia coli, AG100, 24 h. As to the method:
as §1, §2

The subject of the next experiment is P. aeruginosa PA01. Particulars: Pseudomonas aeruginosa, PA01, 24 h. As to the method:
as §1, §2

The subject of another experiment is P. aeruginosa PA0509. Particulars: Pseudomonas aeruginosa, PA0509, 24 h. The protocol: as §1, §2
Another experiment relates to P. aeruginosa PA263. Particulars: for MIC: Pseudomonas aeruginosa, PA263, 24 h, 24 h. As to the method:
as §1, §2

Setting [1] is: MIC of antibiotic, +PAFA10 (10 μM).
Where [2] appears, read: MIC of antibiotic, +PAFA11 (10 μM).
Where [3] appears, read: MIC of antibiotic, +PAFA14 (10 μM).
The mark [4] stands for this setting: MIC of antibiotic, AG-100, +PAFA10 (10 μM).
Setting [5] is: MIC of antibiotic, AG-100, +PAFA11 (10 μM).
The mark [6] stands for this setting: MIC of antibiotic, AG-100, +PAFA14 (10 μM).
Setting [7] is: MIC of antibiotic, PA01, +PAFA10 (10 μM).
Setting [8] is: MIC of antibiotic, PA01, +PAFA11 (10 μM).
Setting [9] is: MIC of antibiotic, PA01, +PAFA14 (10 μM).
The mark [10] stands for this setting: MIC of antibiotic, PA0509, +PAFA10 (10 μM), 24 h.
Where [11] appears, read: MIC of antibiotic, PA0509, +PAFA11 (10 μM), 24 h.
Setting [12] is: MIC of antibiotic, PA0509, +PAFA14 (10 μM), 24 h.
Where [13] appears, read: MIC of antibiotic, PA263, +PAFA10 (10 μM).
Setting [14] is: MIC of antibiotic, PA263, +PAFA11 (10 μM).
The mark [15] stands for this setting: MIC of antibiotic, PA263, +PAFA14 (10 μM).

For orientation: MIC means the lowest concentration found to suppress growth. `CN(C)[C@@H]1C(O)=C(C(N)=O)C(=O)[C@@]2(O)C(O)=C3C(=O)c4c(O)cccc4[C@@](C)(O)[C@H]3C[C@@H]12` [TET, tetracycline]: the minimum inhibitory concentration (MIC) with E. coli AG-100A (Antibiotic alone) came to 1 µg/mL; in the experiment on E. coli AG-100A (setting [1]) it was 0.5 µg/mL; with E. coli AG-100A (setting [2]), 0.5 µg/mL; in the experiment with E. coli AG-100A (setting [3]), 0.008 µg/mL; with E. coli AG-100 (AG-100, Antibiotic alone), 1 µg/mL; in the experiment with E. coli AG-100 (setting [4]), 0.5 µg/mL. Besides, the MIC with E. coli AG-100 (setting [5]) stood at 0.25 µg/mL; with E. coli AG-100 (setting [6]) it was 0.008 µg/mL; in the experiment with P. aeruginosa PA01 (setting [7]) it was 8 µg/mL; in the experiment with P. aeruginosa PA01 (setting [8]), 8 µg/mL; with P. aeruginosa PA01 (setting [9]), 2 µg/mL; in the experiment with P. aeruginosa PA01 (PA01, Antibiotic alone), 32 µg/mL. Further, the MIC came to 1 µg/mL in the experiment on P. aeruginosa PA0509; 0.5 µg/mL in the experiment with P. aeruginosa PA0509 (setting [10]); 0.25 µg/mL in the experiment on P. aeruginosa PA0509 (setting [11]); 0.125 µg/mL with P. aeruginosa PA0509 (setting [12]); 8 µg/mL in the experiment with P. aeruginosa PA263 (setting [13]); 16 µg/mL in the experiment on P. aeruginosa PA263 (setting [14]). For the same compound, the minimum inhibitory concentration (MIC) with P. aeruginosa PA263 (setting [15]) was determined as 4 µg/mL; with P. aeruginosa PA263 (PA263, Antibiotic alone), 32 µg/mL. Besides, the “fold reduction in MIC (MIC alone / MIC with PAFA)” value with P. aeruginosa PA263 (PA263, +PAFA11 (10 μM)) is recorded as 2.
Consider `CN(C)c1ccc(O)c2c1C[C@H]1C[C@H]3[C@H](N(C)C)C(O)=C(C(N)=O)C(=O)[C@@]3(O)C(O)=C1C2=O` [MINO, minocycline], for which the minimal inhibitory concentration (MIC) came to 0.25 µg/mL with E. coli AG-100A (Antibiotic alone); 0.25 µg/mL in the experiment on E. coli AG-100A (setting [1]); 0.25 µg/mL with E. coli AG-100A (setting [2]); 0.004 µg/mL in the experiment with E. coli AG-100A (setting [3]); 1 µg/mL with E. coli AG-100 (AG-100, Antibiotic alone); 0.13 µg/mL in the experiment on E. coli AG-100 (setting [4]). In addition, the MIC worked out at 0.13 µg/mL with E. coli AG-100 (setting [5]); 0.004 µg/mL in the experiment on E. coli AG-100 (setting [6]); 2 µg/mL in the experiment with P. aeruginosa PA01 (setting [7]); 4 µg/mL in the experiment on P. aeruginosa PA01 (setting [8]); 0.5 µg/mL with P. aeruginosa PA01 (setting [9]); 16 µg/mL in the experiment on P. aeruginosa PA01 (PA01, Antibiotic alone). Moreover, the minimum inhibitory concentration (MIC) in the experiment on P. aeruginosa PA0509 was 1 µg/mL; in the experiment with P. aeruginosa PA0509 (setting [10]) it was 0.5 µg/mL; in the experiment on P. aeruginosa PA0509 (setting [11]) it was 0.5 µg/mL; in the experiment with P. aeruginosa PA0509 (setting [12]) it was 0.063 µg/mL; in the experiment with P. aeruginosa PA263 (setting [13]) it was 4 µg/mL; in the experiment with P. aeruginosa PA263 (setting [14]), 8 µg/mL. The minimum inhibitory concentration (MIC) in the experiment on P. aeruginosa PA263 (setting [15]) is 2 µg/mL; with P. aeruginosa PA263 (PA263, Antibiotic alone), 16 µg/mL. The “fold reduction in MIC (MIC alone / MIC with PAFA)” value in the experiment with P. aeruginosa PA263 (PA263, +PAFA11 (10 μM)) amounted to 2.
As for `CN(C)[C@@H]1C(O)=C(C(N)=O)C(=O)[C@@]2(O)C(O)=C3C(=O)c4c(O)cccc4[C@@](C)(O)[C@H]3[C@H](O)[C@@H]12` [OXY, oxytetracycline], the MIC in the experiment on E. coli AG-100A (Antibiotic alone) is 1 µg/mL; with E. coli AG-100A (setting [1]), 1 µg/mL; in the experiment on E. coli AG-100A (setting [2]), 1 µg/mL; with E. coli AG-100A (setting [3]) it was 0.008 µg/mL; with E. coli AG-100 (AG-100, Antibiotic alone), 1 µg/mL; in the experiment on E. coli AG-100 (setting [4]) it was 1 µg/mL. Further, the minimum inhibitory concentration (MIC) was found to be 0.13 µg/mL with E. coli AG-100 (setting [5]); 0.008 µg/mL in the experiment on E. coli AG-100 (setting [6]); 8 µg/mL in the experiment with P. aeruginosa PA01 (setting [7]); 8 µg/mL with P. aeruginosa PA01 (setting [8]); 2 µg/mL in the experiment on P. aeruginosa PA01 (setting [9]); 32 µg/mL in the experiment on P. aeruginosa PA01 (PA01, Antibiotic alone). Further, the minimum inhibitory concentration (MIC) is 1 µg/mL with P. aeruginosa PA0509; 0.25 µg/mL in the experiment on P. aeruginosa PA0509 (setting [10]); 0.5 µg/mL with P. aeruginosa PA0509 (setting [11]); 0.063 µg/mL with P. aeruginosa PA0509 (setting [12]); 8 µg/mL in the experiment on P. aeruginosa PA263 (setting [13]); 16 µg/mL in the experiment with P. aeruginosa PA263 (setting [14]). For the same compound, the minimal inhibitory concentration (MIC) in the experiment on P. aeruginosa PA263 (setting [15]) worked out at 4 µg/mL; in the experiment on P. aeruginosa PA263 (PA263, Antibiotic alone), 32 µg/mL. Besides, the “fold reduction in MIC (MIC alone / MIC with PAFA)” value in the experiment with P. aeruginosa PA263 (PA263, +PAFA11 (10 μM)) came to 2.
